Patent publication US11944616B2 (INSTITUT NATIONAL DE LA SANTE ET DE LA RECHERCHE MEDICAL …, priority 2016, dated 2024)
Where two headings read alike, the source gives them in different places.

Assays:
NMDAR = NMDAR blocking activity using patch-clamp (whole-cell voltage clamp recordings from rat hippocampal neurons); format: cell-based; conditions: currents evoked by 100 μM NMDA and 20 μM D-serine, clamped at −60 mV
[1] = In vivo brain penetration measurement (brain/plasma ratio Kp"brain") in rat; conditions: for Kp at 3.45 h: brain (without cerebellum) and plasma, male Sprague-Dawley rat, 3.45 h constant-rate intravenous infusion, 4 mg/kg, mean of 3 rats ± standard deviation, read-out: Kp"brain" (total brain/plasma concentration ratio at steady state); for CNS / BBB penetration (in words): rat, conclusion from Kp"brain" values
Experimental: The femoral vein of male Sprague-Dawley rats (CRL) weighing around 250 g was surgically catheterized at least 72 hours prior to the experiment. 3 animals were performed for each compound tested. The drug was administered as 3.45 h constant-rate intravenous infusion to approach steady state, using a flow rate of 0.8 mL/h, corresponding to dosage of 4 mg/kg (1.067 mg/kg/h, i.e. 1 mg/rat of ˜250 g). The vehicle used was saline.
At the end of the infusion, the rats were anesthetized by inhalation of isoflurane, and blood was collected in a heparinized tube from the abdominal aorta, followed by immediate rinsing of the bloodstream for 2 minutes with saline at a rate of 15 mL/min using a peristaltic pump and left intraventricle cannula (flowing via right atrium). The brain (without cerebellum) was removed, and transferred in a tube and homogenized in two volumes of deionized water using a tissue homogenizer (Precellys24). All samples were stored at −20° C. until analysis. Plasma and brain homogenate sample preparation was performed using solid phase extraction on OASIS® WCX (Waters) and compounds were quantified by reversed phase liquid chromatography and positive electrospray ionization and multiple reaction monitoring mass spectrometry (LC-MS/MS).
This parameter is defined as the ratio of concentrations in brain and blood, Kp“brain” (Cbrain/Cplasma) or log(BB). Log(BB) is the logarithm of the ratio of the steady-state total concentration of a compound in the brain to that in the blood/plasma, log(BB)=log(Cbrain/Cplasma). This parameter depends upon the passive diffusion characteristics, the implication of membrane transporters at the BBB level and the relative drug binding affinity differences between the plasma proteins and brain tissue.

melting point [°C] | SMILES | also measured
215 to 217 | CC(C)CC[N@+]1(C)[C@H]2Cc3ccccc3[C@]1(C)c1ccccc12 | –
214 to 217 | CCC[N@+]1(C)[C@H]2Cc3ccccc3[C@]1(C)c1ccccc12 | –
200 to 203 | CCCCCC[N@+]1(C)[C@H]2Cc3ccccc3[C@]1(C)c1ccccc12 | –
181 to 184 | CCC(C)C[N@+]1(C)[C@H]2Cc3ccccc3[C@]1(C)c1ccccc12 (stereo partly shown) | –
237 to 238 | CC[N+]1(CC)[C@H]2Cc3ccccc3[C@]1(C)c1ccccc12 | –
220 to 222 | C[C@@]12c3ccccc3C[C@@H](c3ccccc31)[N@@+]2(C)CC1CCCCC1 | –
220 to 222 | C[C@@]12c3ccccc3C[C@@H](c3ccccc31)[N@@+]2(C)Cc1ccccc1 | –
159 to 162 | C[C@@]12c3ccccc3C[C@@H](c3ccccc31)[N@@+]2(C)CC1CCC1 | –
174 to 176 | C[C@@]12c3ccccc3C[C@@H](c3ccccc31)[N@@+]2(C)CC1(c2ccccc2)CC1 | –
134 to 136 | Cc1ccc(C[N@+]2(C)[C@H]3Cc4ccccc4[C@]2(C)c2ccccc23)cc1 | –
152 to 154 | CC(C)(C)c1ccc(C[N@+]2(C)[C@H]3Cc4ccccc4[C@]2(C)c2ccccc23)cc1 | –
101 to 103 | COc1ccc(C[N@+]2(C)[C@H]3Cc4ccccc4[C@]2(C)c2ccccc23)cc1 | –
160 to 162 | C[C@@]12c3ccccc3C[C@@H](c3ccccc31)[N@@+]2(C)Cc1ccc(Cl)cc1 | –
129 to 131 | C[C@@]12c3ccccc3C[C@@H](c3ccccc31)[N@@+]2(C)Cc1ccccc1Cl | –
101 to 103 | Cc1ccccc1C[N@+]1(C)[C@H]2Cc3ccccc3[C@]1(C)c1ccccc12 | –
216 to 219 | C[C@@]12c3ccccc3C[C@@H](c3ccccc31)[N@@+]2(C)CCO | –
147 to 149 | C[C@@]12c3ccccc3C[C@@H](c3ccccc31)[N@@+]2(C)CC#N | –
216 to 218 | CC(=O)NCC[N@+]1(C)[C@H]2Cc3ccccc3[C@]1(C)c1ccccc12 | –

melting point [°C] | SMILES | also measured
162 to 164 | C[C@@]12c3ccccc3C[C@@H](c3ccccc31)[N@@+]2(C)CC1(c2ccc(Cl)cc2)CC1 | –
180 to 181 | CC[N@@+]1(CC2CC2)[C@@H]2Cc3ccccc3[C@@]1(C)c1ccccc12 | –
218 to 219 | CC[N+]1(CC)[C@@H]2Cc3ccccc3[C@@]1(C)c1ccccc12 | –
203 to 204 | CCC[N@@+]1(CC2CC2)[C@@H]2Cc3ccccc3[C@@]1(C)c1ccccc12 | –
171 to 172 | CCCC[N@@+]1(CC2CC2)[C@@H]2Cc3ccccc3[C@@]1(C)c1ccccc12 | –
221 to 222 | CCC[N@@+]1(CCO)[C@@H]2Cc3ccccc3[C@@]1(C)c1ccccc12 | –
196 to 197 | CCCC[N@@+]1(CCO)[C@@H]2Cc3ccccc3[C@@]1(C)c1ccccc12 | –
201 to 202 | CC[N@@+]1(CCCCO)[C@@H]2Cc3ccccc3[C@@]1(C)c1ccccc12 | –
179 to 180 | C[C@]12c3ccccc3C[C@H](c3ccccc31)[N@@+]2(CCO)CC1CC1 | –
168 to 169 | C#CC[N@@+]1(CC2CC2)[C@@H]2Cc3ccccc3[C@@]1(C)c1ccccc12 | –
201 to 202 | C#CC[N@@+]1(CCO)[C@@H]2Cc3ccccc3[C@@]1(C)c1ccccc12 | –
131 to 132 | C=CC[N@@+]1(CC2CC2)[C@@H]2Cc3ccccc3[C@@]1(C)c1ccccc12 | –
196 to 197 | C=CC[N@@+]1(CCO)[C@@H]2Cc3ccccc3[C@@]1(C)c1ccccc12 | –
162 to 163 | COCC[N@+]1(C)[C@@H]2Cc3ccccc3[C@@]1(C)c1ccccc12 | –
189 to 192 | C[C@@]12c3ccccc3C[C@@H](c3ccccc31)[N@@+]2(C)CC(N)=O | –
92 to 94 | C[C@@]12c3ccccc3C[C@@H](c3ccccc31)[N@@+]2(C)Cc1ccc(F)cc1 | –
167 to 170 | C[C@@]12c3ccccc3C[C@@H](c3ccccc31)[N@@+]2(C)Cc1cccc(C(F)(F)F)c1 | –

SMILES | melting point [°C] | also measured
CC[N@@+]1(CCO)[C@H]2Cc3ccccc3[C@]1(C)c1ccccc12 (racemic) [Compound No 27] | 205 to 208 | IC50 (NMDAR; read-out: IC50): 360 nM
C[C@@]12c3ccccc3C[C@@H](c3ccccc31)[N+]2(C)C [Compound No 1] | 270 to 280 | Kp at 3.45 h [1]: 0.3 ± 0.03; CNS / BBB penetration (in words) [1]: do not penetrate the CNS; IC50 (NMDAR; read-out: IC50): 650 nM
CC[N@+]1(C)[C@H]2Cc3ccccc3[C@]1(C)c1ccccc12 [Compound No 2] | 230 to 232 | IC50 (NMDAR): 570 nM
CCCC[N@+]1(C)[C@H]2Cc3ccccc3[C@]1(C)c1ccccc12 [Compound No 3] | 200 to 203 | IC50 (NMDAR): 500 nM
CC(C)C[N@+]1(C)[C@H]2Cc3ccccc3[C@]1(C)c1ccccc12 [Compound No 4] | 216 to 217 | IC50 (NMDAR): 820 nM
C[C@@]12c3ccccc3C[C@@H](c3ccccc31)[N@@+]2(C)CC1CC1 [Compound No 5] | 103 to 105 | IC50 (NMDAR): 400 nM
C[C@@]12c3ccccc3C[C@@H](c3ccccc31)[N@@+]2(C)CC1CCCC1 [Compound No 6] | 125 to 127 | IC50 (NMDAR): 1100 nM
CC[N@@+]1(CCO)[C@H]2Cc3ccccc3[C@]1(C)c1ccccc12 [Compound No 26] | 202 to 205 | Kp at 3.45 h [1]: 0.4 ± 0.08; CNS / BBB penetration (in words) [1]: do not penetrate the CNS; IC50 (NMDAR; read-out: IC50): 400 nM
CC[N@@+]1(CC2CC2)[C@H]2Cc3ccccc3[C@]1(C)c1ccccc12 [Compound No 31] | 189 to 191 | IC50 (NMDAR; read-out: IC50): 270 nM
CC[N@@+]1(CCO)[C@H]2Cc3ccccc3[C@]1(C)c1ccccc12 [Compound No 32] | 115 to 120 | –
